# From BindingDB's records for patent US10208011 (G1 Therapeutics, Inc., 2019)
# What was measured:
# [1] = target: T1, Estrogen receptor (Homo sapiens, UniProt P03372); assay: Human ERalpha Reporter Assa
# T1 sequence (P03372 whole entry): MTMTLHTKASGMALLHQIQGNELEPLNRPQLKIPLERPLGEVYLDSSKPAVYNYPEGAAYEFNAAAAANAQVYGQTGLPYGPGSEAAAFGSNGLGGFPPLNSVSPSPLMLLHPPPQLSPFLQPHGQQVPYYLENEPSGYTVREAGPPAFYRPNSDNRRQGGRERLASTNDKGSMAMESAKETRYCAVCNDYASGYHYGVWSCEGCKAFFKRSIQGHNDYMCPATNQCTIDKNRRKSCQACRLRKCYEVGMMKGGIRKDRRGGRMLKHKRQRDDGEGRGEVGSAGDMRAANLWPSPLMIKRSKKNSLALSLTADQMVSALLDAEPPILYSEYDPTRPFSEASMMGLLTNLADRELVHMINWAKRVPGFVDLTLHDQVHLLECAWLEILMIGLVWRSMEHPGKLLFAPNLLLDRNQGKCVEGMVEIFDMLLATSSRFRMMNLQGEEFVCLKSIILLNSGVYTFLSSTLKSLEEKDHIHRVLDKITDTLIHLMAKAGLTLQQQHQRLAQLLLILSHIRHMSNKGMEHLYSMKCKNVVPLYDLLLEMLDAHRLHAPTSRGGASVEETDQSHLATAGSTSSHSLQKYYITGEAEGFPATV
# Description: All reagents used in this assay was supplied in the Human ERα Reporter Assay by Indigo Biosciences # IB00401. In an effort to screen selective estrogen receptor degraders (SERDs), the Human ERα Reporter Assay, supplied by Indigo Biosciences, was utilized to quantify antagonist functional activity against the human estrogen receptor. Reporter cells were thawed at 37° C. and added to pre-warmed to 37° C. cell recovery medium (CRM). Stock concentration of 17β-estradiol was serially diluted in CRM. […] Cells plus 17β-estradiol were dispensed in a kit-supplied white walled 96-well plate. Concentrated stocks of test compounds were diluted to 2× working concentrations in cell screening medium (CSM). 2× concentrated compounds were added to the plated cells in a dose-dependent manner resulting in a final concentration range of 1E-11 to 1E-5 M and a final 17β-estradiol concentration of 8E-10 M. Assay plates were incubated for 24 hours in a humidified 37° C. incubator. Culture medium was removed from the assay plates by inversion. Detection substrate and buffer was warmed to room temperature, mixed thoroughly, and immediately added to the assay plates. […] Luminescence was measured in a Synergy HTX luminescence plate reader. Data is processed utilizing GraphPad Prism 7 by graphing the relative light units measured at each compound concentration.
# [2] = target: T1, Estrogen receptor; assay: Estrogen Receptor (ER) Degradation Assay
# Description: A screening strategy was implemented utilizing an In-Cell Western assay to measure their ability to degrade the estrogen receptor in vitro. MCF7 cells, which are estrogen receptor positive, were plated at a cell density of […] into black walled clear bottom 96-well plates. Cells were incubated in phenol red free Dulbecco's Modified Eagle Media (DMEM) supplemented with 8% charcoal-stripped fetal bovine calf serum for 24 hours in a humidified 37° C. incubator. Concentrated stock compounds were diluted to 10× in complete media. Compounds were added to the plated cells in a dose-dependent manner ranging from 1E-12 to 1E-05 M and incubated for an additional 24 hours at 37° C. Culture medium was removed from the culture plates by gentle inversion. Cells were fixed in 4% paraformaldehyde in 1× phosphate buffered saline-calcium magnesium free (PBS-CMF) for 15 minutes at room temperature, washed 3 times for 5 minutes each in 1×PBS-CMF. […] ER protein expression was assessed by the Licor Odyssey CLx imaging system using Image Studio v5.2. Data is processed utilizing GraphPad Prism 7 by subtracting background from the vehicle and setting the vehicle to 100% ER activity, followed by comparing treated samples to vehicle.
IC50 [1],IC50 [2],SMILES
< 1000 nM,,"Cc1cc(F)cc(C)c1C(=O)c1sc2cc(O)ccc2c1Oc1ccc(OCCN2CCCCC2)cc1 [US10208011, Compound 106]"
< 1000 nM,,"Cc1cc(F)cc(C)c1C(=O)c1sc2cc(O)ccc2c1Oc1ccc(OCCN2CCCCCC2)cc1 [US10208011, Compound 107]"
,< 1000 nM,"Cc1cc(F)cc(C)c1C(=O)c1sc2cc(O)ccc2c1Oc1ccc(OCCN2CCCC2)cc1 [US10208011, Compound 108]"
